Data set [1] addresses T1, Solute carrier family 22 member 12 (Homo sapiens, UniProt Q96S37).
T1 sequence (Q96S37 whole entry): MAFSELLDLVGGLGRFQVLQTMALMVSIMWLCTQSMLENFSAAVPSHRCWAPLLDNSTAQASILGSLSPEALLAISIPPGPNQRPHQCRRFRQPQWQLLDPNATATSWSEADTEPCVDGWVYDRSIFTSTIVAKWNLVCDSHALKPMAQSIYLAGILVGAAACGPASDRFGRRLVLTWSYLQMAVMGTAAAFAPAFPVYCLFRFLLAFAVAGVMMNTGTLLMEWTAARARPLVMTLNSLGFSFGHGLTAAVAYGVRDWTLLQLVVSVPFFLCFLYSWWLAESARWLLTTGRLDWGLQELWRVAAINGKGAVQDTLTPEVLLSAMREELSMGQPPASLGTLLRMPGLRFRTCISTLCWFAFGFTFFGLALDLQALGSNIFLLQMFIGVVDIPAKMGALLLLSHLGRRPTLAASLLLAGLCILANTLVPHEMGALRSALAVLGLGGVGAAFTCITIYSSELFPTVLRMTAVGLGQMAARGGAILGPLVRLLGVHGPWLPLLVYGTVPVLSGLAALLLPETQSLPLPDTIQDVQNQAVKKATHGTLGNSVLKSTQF
Briefly: Inhibition of URAT1 (unknown origin)-mediated uric acid uptake at 3 uM relative to control.

The nature of data set [2]: Inhibition of uric acid uptake in human RPTEC. It is filed as functional, tissue-based.
A short description of data set [3]: Hepatotoxicity assessed as induction of mitochondrial (unknown origin) toxicity by measuring mitochondrial inhibitory activity at 100 uM relative to control. The settings on record: mitochondria (unknown origin).
Data set [4] can be described thus: Cmax in rat at 3 mg/kg, po. It is filed as ADME, organism-based. More on the design: route oral, dose 3 mg/kg. To be noted: in vivo.
The nature of data set [5]: Drug excretion in rat urine at 3 mg/kg, po measured for 4 hrs. To be noted: read-out: Drug excretion. It is filed as ADME, organism-based.
Another data set addresses Cytochrome P450 2C9 (Homo sapiens, UniProt P11712). The data set can be described thus: Inhibition of CYP2C9 (unknown origin). It is filed as ADME.
The subject of the next data set is Sapajus apella. The data set can be described thus: Uricosuric activity in Cebus apella assessed as decrease in plasma urate level at 300 mg/kg, po measured for 24 hrs. It is filed as functional, organism-based.
Data set [6] in a line: Hepatotoxicity assessed as induction of mitochondrial (unknown origin) toxicity by measuring mitochondrial inhibitory activity. The settings on record: mitochondria (unknown origin).

The source made the active and inactive calls. No cut-off for these calls is given here.

The term inhibition denotes the change of the read-out against control, counted positive when it falls. By IC50 is commonly meant the midpoint of a concentration-inhibition curve. What is called Cmax is the peak of the concentration-time curve.

Sequence of Cytochrome P450 2C9 (P11712 whole entry): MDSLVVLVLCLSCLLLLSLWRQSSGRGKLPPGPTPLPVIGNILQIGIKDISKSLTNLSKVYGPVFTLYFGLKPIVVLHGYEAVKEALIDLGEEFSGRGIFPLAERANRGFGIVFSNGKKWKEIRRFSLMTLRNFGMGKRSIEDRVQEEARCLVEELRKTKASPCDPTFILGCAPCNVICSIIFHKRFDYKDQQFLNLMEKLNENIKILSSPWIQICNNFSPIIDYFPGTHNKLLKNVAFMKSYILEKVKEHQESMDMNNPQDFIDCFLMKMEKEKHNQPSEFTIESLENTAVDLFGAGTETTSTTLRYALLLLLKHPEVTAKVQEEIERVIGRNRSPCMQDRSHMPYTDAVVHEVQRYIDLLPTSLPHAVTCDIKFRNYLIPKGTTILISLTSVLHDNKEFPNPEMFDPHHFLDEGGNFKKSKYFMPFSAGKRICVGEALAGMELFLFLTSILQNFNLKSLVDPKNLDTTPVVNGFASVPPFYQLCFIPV

For `N#Cc1cc(C(=O)N2CCSC2)cc(Br)c1O`, the inhibition at 3 µM in data set [1] turned out to be 72%. This compound showed an IC50 in data set [2] of 401 µM. The inhibition at 100 µM in data set [3] came to 23%.
Consider `N#Cc1cc(C(=O)N2CC=CC2)cc(C(F)(F)F)c1O`, for which, in data set [1], the inhibition at 3 µM amounted to 83%. Besides, the IC50 in data set [2] stood at 818 µM; against Cytochrome P450 2C9, 52 µM. This compound yielded a Cmax in data set [4] of 2610 ng/mL. For the same compound, the dose excreted at 4 h in data set [5] came out at 23%. In data set [3], the inhibition at 100 µM was -1%. In addition, the result in the data set with Sapajus apella was Active.
On to `N#Cc1cc(C(=O)N2CC=CC2)cc(Br)c1O`, for which the inhibition at 3 µM in data set [1] was 69%. In data set [2], the IC50 is 747 µM. In addition, in data set [3], the inhibition at 100 µM is 0%.
For `CC1=CCN(C(=O)c2cc(C#N)c(O)c(C(F)(F)F)c2)C1`, the inhibition at 3 µM in data set [1] turned out to be 88%. Also, the IC50 in data set [2] was 137 µM; at Cytochrome P450 2C9, 94 µM. The concentration in data set [4] peaked (Cmax) at 2220 ng/mL. In addition, the dose excreted at 4 h in data set [5] is 10%. In addition, in data set [3], the inhibition at 100 µM is 9%.
On to `CCc1cc(C(=O)N2CC=CC2)cc(C#N)c1O`, for which the values for the IC50 in data set [6] and in data set [2] were more than 100 µM and more than 1000 µM, respectively. Besides, in data set [1], the inhibition at 3 µM was determined as 54%. In addition, the inhibition at 100 µM in data set [3] was found to be 17%.
Take `CCc1cc(C(=O)N2CCSC2)cc(C#N)c1O`: the inhibition at 3 µM in data set [1] worked out at 67%. In addition, it took 124 µM to reach half-maximal inhibition in data set [2] (IC50). Further, the dose excreted at 4 h in data set [5] turned out to be 9.5%. Moreover, in data set [3], the inhibition at 100 µM amounted to 25%.
Regarding `N#Cc1cc(C(=O)N2CCS(=O)(=O)C2)cc(C(F)(F)F)c1O`, the inhibition at 3 µM in data set [1] was found to be 55%. Moreover, the IC50 in data set [2] turned out to be 272 µM. Besides, the inhibition at 100 µM in data set [3] is -3%.
Taken in the same sequence, the figures for `N#Cc1cc(C(=O)N2CCSC2)cc(C#N)c1O` were 62%, 614 µM and 23%.
Taken in the same sequence, the figures for `N#Cc1cc(C(=O)N2CC=CC2)cc(Cl)c1O` were 66%, more than 1000 µM and 5%.
For `N#Cc1cc(C(=O)N2CCC2)cc(C(F)(F)F)c1O`, in that order: 75%, more than 1000 µM and 17%.
As to `CC(C)(C)c1cc(C(=O)N2CC=CC2)cc(C#N)c1O`, the concentration for half-maximal inhibition (IC50) stood at 64 µM in data set [6] and 311 µM in data set [2]. Moreover, the inhibition at 3 µM in data set [1] amounted to 92%. Besides, the inhibition at 100 µM in data set [3] was 60%.
On to `Cc1cc(C(=O)N2CC=CC2)cc(C#N)c1O`, for which the inhibition at 3 µM in data set [1] turned out to be 25%. This compound also gave an IC50 in data set [2] of more than 1000 µM. Also, the inhibition at 100 µM in data set [3] was -10%.
Regarding `CCc1cc(C(=O)n2cccc2)cc(C#N)c1O`, the IC50 is 6.7 µM in data set [6] and more than 1000 µM in data set [2]. Moreover, in data set [1], the inhibition at 3 µM was 83%.
On to `O=C(C1=CCCC1)c1cc(Br)c(O)c(Br)c1`, for which the IC50 in data set [6] stood at 6.6 µM.
In the case of `CCCc1cc(C(=O)N2CC=CC2)cc(C#N)c1O`, in data set [1], the inhibition at 3 µM was 70%. For the same compound, the IC50 in data set [2] was more than 1000 µM. In addition, the inhibition at 100 µM in data set [3] is 7%.
For `N#Cc1cc(C(=O)N2CC=CC2)cc(I)c1O`, in that order: 79%, more than 1000 µM and 8%.
For `CC(C)(C)c1cc(C(=O)N2CCC2)cc(C#N)c1O`, in that order: 71%, more than 1000 µM and 41%.
With `CC(C)(C)c1cc(C(=O)N2CCCC2)cc(C#N)c1O`, the IC50 in data set [6] was more than 100 µM; in data set [2], more than 1000 µM. Moreover, the inhibition at 3 µM in data set [1] was found to be 84%. In addition, the inhibition at 100 µM in data set [3] turned out to be 22%.
As for `O=C(c1cc(Br)c(O)c(Br)c1)N1CC=CC1`, in data set [6], the IC50 was more than 100 µM. The inhibition at 100 µM in data set [3] was determined as 22%.
Take `CC(C)(C)c1cc(C(=O)N2CCSC2)cc(C#N)c1O`: the IC50 in data set [6] is 27 µM; in data set [2] it was 257 µM. Moreover, the inhibition at 3 µM in data set [1] came out at 92%. The inhibition at 100 µM in data set [3] is 77%.
Consider `CCCc1cc(C(=O)N2CC=CC2)cc(C(F)(F)F)c1O`, for which the inhibition at 3 µM in data set [1] worked out at 49%. In data set [2], this compound showed an IC50 of 903 µM. In addition, the inhibition at 100 µM in data set [3] stood at 47%.
On to `N#Cc1cc(C(=O)N2CCSC2)cc(C(F)(F)F)c1O`, for which the inhibition at 3 µM in data set [1] turned out to be 84%. The IC50 in data set [2] is 202 µM; at Cytochrome P450 2C9, more than 100 µM. The same compound gave a Cmax in data set [4] of 3700 ng/mL. Besides, in data set [5], the dose excreted at 4 h worked out at 9%. Besides, the inhibition at 100 µM in data set [3] stood at 29%.
For the compound `O=C(c1cc(Cl)c(O)c(Cl)c1)N1CS(=O)(=O)c2ccccc21` [DOTINURAD], at Cytochrome P450 2C9, the IC50 came to 5.7 µM.
Regarding `N#Cc1cc(C(=O)N2CC=CC2)cc(C2CC2)c1O`, in data set [1], the inhibition at 3 µM was 69%. The compound further returned a half-inhibitory concentration (IC50) in data set [2] of more than 1000 µM. For the same compound, the inhibition at 100 µM in data set [3] was -7%.
For `CSc1cc(C(=O)N2CC=CC2)cc(C#N)c1O`, in that order: 58%, more than 1000 µM and 6%.
Take `CCc1oc2ccccc2c1C(=O)c1cc(Br)c(O)c(Br)c1` [BENZBROMARONE]: the figures for the IC50 in data set [6] and in data set [2] were 3.1 µM and 6.8 µM, respectively. For the same compound, in data set [1], the inhibition at 3 µM was 91%.
For the compound `N#Cc1cc(C(=O)N2CCCC2)cc(C(F)(F)F)c1O`, the inhibition at 3 µM in data set [1] is 66%. This compound also came in with a 50% inhibitory concentration (IC50) in data set [2] of more than 1000 µM. The inhibition at 100 µM in data set [3] turned out to be 18%.
As for `O=C(C1=CCCC1)c1cc(Cl)c(O)c(Cl)c1`, the IC50 in data set [6] was found to be 10 µM.
